In EP0920315B1, “TREATMENT OF UPPER AIRWAY ALLERGIC RESPONSES WITH A COMBINATION OF HISTAMINE RECEPTOR ANTAGONISTS” (SCHERING CORPORATION, priority 1996, dated 1998) one finds NAR and Ki data, which are given here for six compounds.

Where two headings read alike, the source gives them in different places.

One may read the Ki as a dissociation constant, usually derived from enzyme kinetics or from competition with a known ligand.

One test relates to Adult cats. The test is described as follows: Nasal airway resistance (NAR) after aerosolized Compound 48/80 in anesthetized cats. In kind it is in vivo. An excerpt: Adult cats are anesthetized with intraperitoneal injections of sodium pentobarbital. The right femoral artery and vein are cannulated for measurement of blood pressure with a pressure transducer, and for the administration of drugs. The animals are paralyzed with intravenous gallamine triethiodide and subsequently mechanically ventilated with room air, using an animal ventilator. After isolation of the cervical […], a cuffed endotracheal tube is advanced rostrally into the posterior nasopharynx and inflated to form an air-tight seal, allowing continuous measurement of pressure changes within the nasal cavity. The right nasal airway is occluded with dental impression compound, and humidified air is passed through the left nasal airway at about 1.7 liters per minute. By means of pressure transducers, nasal airway pressure and insufflation pressure can be derived and electronically recorded.
Nasal airway resistance (NAR) is determined by dividing the pressure within the nasal cavity (expressed in centimeters of water) by the air flow rate (expressed in liters per minute). Measurements with 18 subject animals yield an average baseline NAR of 2.6.
The known histamine releaser "Compound 48/80" (the condensation product of N-methyl-p-methoxyphenethylamine with formaldehyde, sold by Sigma Chemical Company, St. Louis, Missouri, USA), as a 1.0 percent solution in 0.9 percent aqueous saline solution, is aerosolized into the air stream for 2 minutes to induce an increased NAR. This effect is used to study the decongestant effects of various test substances, administered to the animals intravenously 10 minutes prior to the introduction of Compound 48/80. These substances include 0.9 percent aqueous saline (normal saline "Vehicle"), phenylpropanolamine hydrochloride at 1.0 mg/Kg of the free drug, thioperamide maleate at 10 mg/Kg of the free drug and chlorpheniramine maleate at 0.8 mg/Kg of the free drug, all of the drug compounds being in solution in 0.9 percent aqueous saline.
The experiment of the preceding example is repeated, but the intravenous drugs are varying amounts of thioperamide (administered as the maleate), in solution together with a constant 0.8 mg/Kg of chlorpheniramine ("CPA," administered as the maleate).
The experiment of preceding Example 1 is repeated, but the intravenous drug administered is clobenpropit in varying amounts, either alone or in solution together with a constant 0.8 mg/Kg of chlorpheniramine ("CPA," administered as the maleate).
To test the statement in U.S. Patent 5,217,986 that verongamine itself has decongestant activity, an experiment similar to that of preceding Example 1, but with a different vehicle, is conducted. The following results are obtained:
The experiment of preceding Example 3 is conducted, using loratadine as the antihistaminic compound at 3 mg/Kg, administered in a solution ("Vehicle") which is 30 percent Dimethylsulfoxide, 40 percent Ethanol and 30 percent normal saline, and using thioperamide as the H3 receptor antagonist at 10 mg/Kg.

The next test addresses T1, histamine H3 receptor (Cavia porcellus, UniProt Q9JI35).
T1 construct: determined by a guinea pig brain membrane assay; from tissue; host or cells: guinea pig brain membranes
The test is described as follows: Guinea pig brain membrane binding assay (displacement of radiolabeled N-alpha-methylhistamine, Korte et al.). The text has this: A particularly useful screening assay measures binding to sites in guinea pig brain membranes. This test is described in detail by Korte et al., "Characterization and Tissue Distribution of H3 Histamine Receptors in Guinea Pigs by N^α -Methylhistamine," in Biochemical and Biophysical Research Communications, Vol. 168, pages 979-986 (1990), and quantifies the displacement of bound radiolabeled N" - methylhistamine from tissues by candidate compounds. Results are expressed as "Ki" values, in nanoMolar (nM) units, which values can be considered as being dissociation constants for the H3 antagonist on the H3 receptor system, or an index of antagonist affinity for the receptor. The present inventors have evidence that decongestant activity in their invention for a given H3 antagonist concentration can be predicted to increase as the Ki value obtained from the assay for an antagonist decreases. In general, Ki values less than about 200 nM are considered necessary for an agent to be useful as an H3 antagonist in the invention.
The affinity of various histamine H3 receptor antagonists for binding sites is determined by a guinea pig brain membrane assay, according to the procedure of Korte et al., Biochemical and Biophysical Research Communications, Vol. 168, pages 979-986 (1990).

Where [1] appears, read: Example 1, i.v. 10 minutes prior to Compound 48/80, single drugs in 0.9 percent saline: thioperamide 10 mg/Kg, chlorpheniramine 0.8 mg/Kg, phenylpropanolamine 1.0 mg/Kg, NAR = cm of water / liters per minute, Vehicle 9.1.

T1 sequence (Q9JI35 whole entry): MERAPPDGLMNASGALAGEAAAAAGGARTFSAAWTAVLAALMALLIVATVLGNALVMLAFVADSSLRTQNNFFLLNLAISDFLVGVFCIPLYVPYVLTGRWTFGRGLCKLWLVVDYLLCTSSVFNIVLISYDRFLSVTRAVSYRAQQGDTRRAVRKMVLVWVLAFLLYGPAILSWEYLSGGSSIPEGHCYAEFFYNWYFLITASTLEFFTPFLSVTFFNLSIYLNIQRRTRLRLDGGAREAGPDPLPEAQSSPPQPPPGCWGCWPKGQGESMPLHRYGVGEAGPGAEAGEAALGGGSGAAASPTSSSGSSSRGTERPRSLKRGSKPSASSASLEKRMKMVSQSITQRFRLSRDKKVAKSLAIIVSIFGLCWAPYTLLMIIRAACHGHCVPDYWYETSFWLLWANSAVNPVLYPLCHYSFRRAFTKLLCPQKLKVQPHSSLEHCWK

The compound `CN(C)CCC(c1ccc(Cl)cc1)c1ccccn1` (stereo not drawn) [Chlorpheniramine, chlorpheniramine] had an NAR in the test with Adult cats (setting [1]) of 6.0.

At histamine H3 receptor, `NC(=NCc1ccc(Cl)cc1)SCCCc1cnc[nH]1` [Clobenpropit, clobenpropit] came in with a Ki of 0.1 nM. The NAR in the test with Adult cats (Example 3, Clobenpropit 1.0 mg/Kg alone i.v., Vehicle 9.1) is listed as 8.5.

On to `COc1ccc(C/C(=N\O)C(=O)NCCc2c[nH]cn2)cc1Br` [Verongamine, verongamine], for which, at histamine H3 receptor (guinea pig brain membranes, read-out: Ki), the Ki worked out at 280 nM. This compound also showed an NAR in the test on Adult cats (Example 5, Verongamine 10 mg/Kg, different vehicle, Vehicle 7.8) of 7.3. In the test on Adult cats (Example 6, loratadine 3 mg/Kg, thioperamide 10 mg/Kg, vehicle 30 percent Dimethylsulfoxide, 40 percent Ethanol, 30 percent normal saline, Vehicle 12.6), `CCOC(=O)N1CCC(=C2c3ccc(Cl)cc3CCc3cccnc32)CC1` [Loratadine, loratadine] had an NAR of 10.2. The compound `S=C(NC1CCCCC1)N1CCC(c2cnc[nH]2)CC1` [Thioperamide, thioperamide] registered a Ki on histamine H3 receptor of 12 nM. The compound also had an NAR with Adult cats (setting [1]) of 6.7. Consider `CC(N)C(O)c1ccccc1` (stereo not drawn) [Phenylpropanolamine, phenylpropanolamine], for which, in the test with Adult cats (setting [1]), the NAR turned out to be 2.9.
